Among the data in patent publication US20220305137A1, “DRUG CONTAINING TARGETING LIPOSOMES” (NEXTAR CHEMPHARMA SOLUTIONS LTD., priority 2019, published 2022) are doxorubicin brain concentration values, retold here.

The nature of this series: Doxorubicin brain concentration after intravenous administration, LC-MS/MS. The conditions noted are these: mice, 7.5 mg/kg intravenous. The protocol: A study was performed to determine doxorubicin distribution after administration, when comparing three doxorubicin-containing compositions, each administered to a group of 10 male ICR mice aged 7 weeks. Composition 1 was free doxorubicin.
Animals were administered doxorubicin in the following amount per administration, for each of the three compositions. Composition 1, was administered in HEPES solution at a dose of 7.5 mg/kg, in a volume of 100 microliter (μl) via the intravenous route. Compositions 2 and 3 were each administered at a dose of 15 mg/kg (equivalent of doxorubicin) in a volume of 300 μl via the intravenous route.
Five mice in each group were sacrificed one hour post administration, and five mice four hours post administration, and doxorubicin brain concentrations were determined using an LC-MS/MS method.

SMILES strings stand for the structures.

Take `COc1cccc2c1C(=O)c1c(O)c3c(c(O)c1C2=O)C[C@@](O)(C(=O)CO)C[C@@H]3O[C@H]1C[C@H](N)[C@H](O)[C@H](C)O1` [Composition 1, doxorubicin]: the doxorubicin brain concentration result reads like this: (60 minutes post administration) “low brain concentration”; (240 minutes post administration) “low brain concentration”.
